The source made the active and inactive calls.
Key:
Type in all cases: functional
[1] = system: SF-295; assay: Cytotoxicity against human SF295 cells assessed as cell growth at 10 uM after 48 hrs by sulforhodamine B assay
[2] = system: RPMI-8226; assay: Cytotoxicity against human RPMI8226 cells assessed as cell growth at 10 uM after 48 hrs by sulforhodamine B assay
[3] = system: MOLT-4; assay: Cytotoxicity against human MOLT4 cells assessed as cell growth at 10 uM after 48 hrs by sulforhodamine B assay
[4] = system: K562; assay: Cytotoxicity against human K562 cells assessed as cell growth at 10 uM after 48 hrs by sulforhodamine B assay
[5] = system: NCI-H522; assay: Cytotoxicity against human NCI-H522 cells assessed as cell growth at 10 uM after 48 hrs by sulforhodamine B assay
[6] = system: HT-29; assay: Cytotoxicity against human HT-29 cells assessed as cell growth at 10 uM after 48 hrs by sulforhodamine B assay
[7] = system: PC-3; assay: Cytotoxicity against human PC3 cells assessed as cell growth at 10 uM after 48 hrs by sulforhodamine B assay
[8] = system: UACC-62; assay: Cytotoxicity against human UACC62 cells assessed as cell growth at 10 uM after 48 hrs by sulforhodamine B assay
[9] = system: HL-60(TB); assay: Cytotoxicity against human HL-60(TB) cells assessed as cell growth at 10 uM after 48 hrs by sulforhodamine B assay
[10] = system: SR; assay: Cytotoxicity against human SR cells assessed as cell growth at 10 uM after 48 hrs by sulforhodamine B assay
[11] = system: EKVX; assay: Cytotoxicity against human EKVX cells assessed as cell growth at 10 uM after 48 hrs by sulforhodamine B assay
[12] = system: SK-MEL-2; assay: Cytotoxicity against human SK-MEL-2 cells assessed as cell growth at 10 uM after 48 hrs by sulforhodamine B assay
[13] = system: OVCAR-4; assay: Cytotoxicity against human OVCAR4 cells assessed as cell growth at 10 uM after 48 hrs by sulforhodamine B assay
[14] = system: T47D; assay: Cytotoxicity against human T47D cells assessed as cell growth at 10 uM after 48 hrs by sulforhodamine B assay
[15] = system: A549; assay: Cytotoxicity against human A549 cells assessed as cell growth at 10 uM after 48 hrs by sulforhodamine B assay
[16] = system: HOP-62; assay: Cytotoxicity against human HOP62 cells assessed as cell growth at 10 uM after 48 hrs by sulforhodamine B assay
[17] = system: HOP-92; assay: Cytotoxicity against human HOP92 cells assessed as cell growth at 10 uM after 48 hrs by sulforhodamine B assay
[18] = system: NCI-H322M; assay: Cytotoxicity against human NCI-H322M cells assessed as cell growth at 10 uM after 48 hrs by sulforhodamine B assay
[19] = system: NCI-H460; assay: Cytotoxicity against human NCI-H460 cells assessed as cell growth at 10 uM after 48 hrs by sulforhodamine B assay
[20] = system: NCI-H226; assay: Cytotoxicity against human NCI-H226 cells assessed as cell growth at 10 uM after 48 hrs by sulforhodamine B assay
[21] = system: NCI-H23; assay: Cytotoxicity against human NCI-H23 cells assessed as cell growth at 10 uM after 48 hrs by sulforhodamine B assay
[22] = system: COLO 205; assay: Cytotoxicity against human COLO205 cells assessed as cell growth at 10 uM after 48 hrs by sulforhodamine B assay
[23] = system: HCC 2998; assay: Cytotoxicity against human HCC2998 cells assessed as cell growth at 10 uM after 48 hrs by sulforhodamine B assay
[24] = system: HCT-116; assay: Cytotoxicity against human HCT116 cells assessed as cell growth at 10 uM after 48 hrs by sulforhodamine B assay
[25] = system: HCT-15; assay: Cytotoxicity against human HCT15 cells assessed as cell growth at 10 uM after 48 hrs by sulforhodamine B assay
[26] = system: KM12; assay: Cytotoxicity against human KM12 cells assessed as cell growth at 10 uM after 48 hrs by sulforhodamine B assay
[27] = system: SW-620; assay: Cytotoxicity against human SW620 cells assessed as cell growth at 10 uM after 48 hrs by sulforhodamine B assay
[28] = system: MCF7; assay: Cytotoxicity against human MCF7 cells assessed as cell growth at 10 uM after 48 hrs by sulforhodamine B assay
[29] = system: MDA-MB-468; assay: Cytotoxicity against human MDA-MB-468 cells assessed as cell growth at 10 uM after 48 hrs by sulforhodamine B assay
[30] = system: MDA-MB-231; assay: Cytotoxicity against human MDA-MB-231 cells assessed as cell growth at 10 uM after 48 hrs by sulforhodamine B assay
[31] = system: Hs-578T; assay: Cytotoxicity against human Hs 578T cells assessed as cell growth at 10 uM after 48 hrs by sulforhodamine B assay
[32] = system: BT-549; assay: Cytotoxicity against human BT549 cells assessed as cell growth at 10 uM after 48 hrs by sulforhodamine B assay
[33] = system: IGROV-1; assay: Cytotoxicity against human IGROV1 cells assessed as cell growth at 10 uM after 48 hrs by sulforhodamine B assay
[34] = system: OVCAR-3; assay: Cytotoxicity against human OVCAR-3 cells assessed as cell growth at 10 uM after 48 hrs by sulforhodamine B assay
[35] = system: OVCAR-5; assay: Cytotoxicity against human OVCAR5 cells assessed as cell growth at 10 uM after 48 hrs by sulforhodamine B assay
[36] = system: OVCAR-8; assay: Cytotoxicity against human OVCAR8 cells assessed as cell growth at 10 uM after 48 hrs by sulforhodamine B assay
[37] = system: SK-OV-3; assay: Cytotoxicity against human SKOV3 cells assessed as cell growth at 10 uM after 48 hrs by sulforhodamine B assay
[38] = system: CCRF-CEM; assay: Cytotoxicity against human CCRF-CEM cells assessed as cell growth at 10 uM after 48 hrs by sulforhodamine B assay
[39] = system: 786-0; assay: Cytotoxicity against human 786-0 cells assessed as cell growth at 10 uM after 48 hrs by sulforhodamine B assay
[40] = system: A498; assay: Cytotoxicity against human A498 cells assessed as cell growth at 10 uM after 48 hrs by sulforhodamine B assay
[41] = system: ACHN; assay: Cytotoxicity against human ACHN cells assessed as cell growth at 10 uM after 48 hrs by sulforhodamine B assay
[42] = system: SN12C; assay: Cytotoxicity against human SN12C cells assessed as cell growth at 10 uM after 48 hrs by sulforhodamine B assay
[43] = system: RXF 393; assay: Cytotoxicity against human RXF393 cells assessed as cell growth at 10 uM after 48 hrs by sulforhodamine B assay
[44] = system: TK-10; assay: Cytotoxicity against human TK10 cells assessed as cell growth at 10 uM after 48 hrs by sulforhodamine B assay
[45] = system: UO-31; assay: Cytotoxicity against human UO31 cells assessed as cell growth at 10 uM after 48 hrs by sulforhodamine B assay
[46] = system: LOX IMVI; assay: Cytotoxicity against human LOXIMVI cells assessed as cell growth at 10 uM after 48 hrs by sulforhodamine B assay
[47] = system: M14; assay: Cytotoxicity against human M14 cells assessed as cell growth at 10 uM after 48 hrs by sulforhodamine B assay
[48] = system: Malme-3M; assay: Cytotoxicity against human MALME-3M cells assessed as cell growth at 10 uM after 48 hrs by sulforhodamine B assay
[49] = system: MDA-MB-435; assay: Cytotoxicity against human MDA-MB-435 cells assessed as cell growth at 10 uM after 48 hrs by sulforhodamine B assay
[50] = system: SK-MEL-28; assay: Cytotoxicity against human SK-MEL-28 cells assessed as cell growth at 10 uM after 48 hrs by sulforhodamine B assay
[51] = system: SK-MEL-5; assay: Cytotoxicity against human SK-MEL-5 cells assessed as cell growth at 10 uM after 48 hrs by sulforhodamine B assay
[52] = system: UACC-257; assay: Cytotoxicity against human UACC257 cells assessed as cell growth at 10 uM after 48 hrs by sulforhodamine B assay
[53] = system: DU-145; assay: Cytotoxicity against human DU145 cells assessed as cell growth at 10 uM after 48 hrs by sulforhodamine B assay
[54] = system: SF-268; assay: Cytotoxicity against human SF268 cells assessed as cell growth at 10 uM after 48 hrs by sulforhodamine B assay
[55] = system: SF-539; assay: Cytotoxicity against human SF539 cells assessed as cell growth at 10 uM after 48 hrs by sulforhodamine B assay
[56] = system: SNB-19; assay: Cytotoxicity against human SNB19 cells assessed as cell growth at 10 uM after 48 hrs by sulforhodamine B assay
[57] = system: SNB-75; assay: Cytotoxicity against human SNB75 cells assessed as cell growth at 10 uM after 48 hrs by sulforhodamine B assay
[58] = system: U-251; assay: Cytotoxicity against human U251 cells assessed as cell growth at 10 uM after 48 hrs by sulforhodamine B assay

Measured: Activity

CCCc1cc(=O)oc2cc(OCc3nnc(S)o3)ccc12
inactive: all assays above

CCCc1cc(=O)oc2c(C)c(OCc3nnc(S)o3)ccc12
inactive: all assays above

Source: ChEMBL document CHEMBL1240439, “Synthesis and docking studies of novel benzopyran-2-ones with anticancer activity” (2010)
